ChEMBL document CHEMBL1127336, “P1 aspartate-based peptide alpha-((2,6-dichlorobenzoyl)oxy)methyl ketones as potent time-dependent inhibitors of interleukin-1 beta-converting enzyme” (J Med Chem, 1994)

Experiments:
[1] = biological target: Cathepsin B (Bos taurus) (UniProt P07688); assay: Compound was evaluated for the ability to inhibit cathepsin B purified from bovine spleen
[2] = biological target: T1, Caspase-1 (Homo sapiens) (UniProt P29466); assay: Compound was evaluated for the ability to inhibit Interleukin-1-beta-converting enzyme (ICE) purified from THP-1 cells
T1 sequence (whole entry): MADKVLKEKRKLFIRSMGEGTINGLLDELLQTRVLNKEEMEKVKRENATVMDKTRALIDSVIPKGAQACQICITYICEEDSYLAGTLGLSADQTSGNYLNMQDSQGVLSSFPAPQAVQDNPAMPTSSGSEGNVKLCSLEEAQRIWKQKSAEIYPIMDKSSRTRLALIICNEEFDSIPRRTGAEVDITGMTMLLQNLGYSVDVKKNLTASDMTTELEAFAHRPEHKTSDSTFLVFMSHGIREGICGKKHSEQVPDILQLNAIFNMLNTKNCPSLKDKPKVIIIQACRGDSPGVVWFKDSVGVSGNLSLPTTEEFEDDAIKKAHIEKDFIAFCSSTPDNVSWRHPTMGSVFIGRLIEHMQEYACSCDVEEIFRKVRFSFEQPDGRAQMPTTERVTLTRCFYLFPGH

[3] = Selectivity (ICE:cathepsin) of the compound; 108:1
[4] = biological target: T1, Caspase-1 (Homo sapiens); assay: Compound was evaluated for the ability to inhibit Interleukin-1-beta-converting enzyme (ICE) purified from THP-1 cells; […]
[5] = Selectivity (ICE:cathepsin) of the compound; 700:1

SMILES	k obs / 1 [1]	k obs / 1 [2]	Selectivity [3]	k obs / 1 [4]	Selectivity [5]
CC(C)C(NC(=O)OCc1ccccc1)C(=O)N[C@@H](CC(=O)O)C(=O)COC(=O)c1c(Cl)cccc1Cl (some centres not stated)	380 M⁻¹ s⁻¹	41000 M⁻¹ s⁻¹	108	–	–
CC(C)[C@H](NC(=O)OCc1ccccc1)C(=O)N[C@@H](C)C(=O)N[C@@H](CC(=O)O)C(=O)COC(=O)c1c(Cl)cccc1Cl	2250 M⁻¹ s⁻¹	–	–	–	–
O=C(O)CC[C@H](NC(=O)OCc1ccccc1)C(=O)COC(=O)c1c(Cl)cccc1Cl	–	–	–	No inhibition	–
O=C(O)C[C@H](NC(=O)OCc1ccccc1)C(=O)COC(=O)c1c(Cl)cccc1Cl	< 10 M⁻¹ s⁻¹	–	–	–	> 700
